Assay results from patent US20230339915A1 (Vertex Pharmaceuticals Incorporated, priority 2020, published 2023).

What was measured:
[1] = target: NL20 human bronchial epithelial cells expressing human Z-AAT (Homo sapiens (Human), UniProt P01009, E366K); test: AAT Function Assay (MSD Assay NL20-SI Cell Line); type: cell-based; conditions: functionally active AAT (AAT-hNE complex, MSD) in supernatant of NL20 cells expressing human Z-AAT; read-out: NL20 Functional EC50
Method in brief: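 Secreted active Z-AAT was measured by MSD electrochemiluminescence: supernatants (45-fold total dilution) were incubated with human neutrophil elastase to form AAT–elastase complexes, captured by goat anti-AAT and detected with labelled anti-elastase. Cells were doxycycline-induced (0.1 μM) NL20 bronchial cells treated with compound overnight; M-AAT standard curve.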

[2] = target: purified Z-AAT protein from human plasma (Homo sapiens (Human), UniProt P01009, E366K); test: Biochemical Assay (Z-AAT Elastase Activity Assay); conditions: purified Z-AAT pre-incubated with compound 1 hour, then human neutrophil elastase and fluorescent substrate
Method in brief: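 Purified plasma Z-AAT (20 nM) preincubated with compounds 1 h at room temperature, then 3 nM human neutrophil elastase added in PBS + 0.01% BRIJ35 for 30 min to form suicide complex. Residual elastase activity read immediately by fluorescence after adding 300 μM MeOSuc-AAPV-AMC substrate solution.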

Sequence of purified Z-AAT protein from human plasma (P01009 25-418 E366K limits assumed): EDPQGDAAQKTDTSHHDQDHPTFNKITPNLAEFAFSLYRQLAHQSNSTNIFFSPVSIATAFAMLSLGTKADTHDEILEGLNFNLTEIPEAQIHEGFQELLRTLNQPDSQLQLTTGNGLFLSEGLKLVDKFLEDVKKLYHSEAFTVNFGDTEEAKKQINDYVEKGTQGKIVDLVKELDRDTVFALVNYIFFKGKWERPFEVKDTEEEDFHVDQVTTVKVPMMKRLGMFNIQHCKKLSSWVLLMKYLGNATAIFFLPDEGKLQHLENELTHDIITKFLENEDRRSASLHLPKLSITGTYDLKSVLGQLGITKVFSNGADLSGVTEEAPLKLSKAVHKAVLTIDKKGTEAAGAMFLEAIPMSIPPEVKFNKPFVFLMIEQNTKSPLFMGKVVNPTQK
Sequence of NL20 human bronchial epithelial cells expressing human Z-AAT (P01009 25-418 E366K limits assumed): as above

| Structure (SMILES) | EC50 [1] [µM] | IC50 [2] [µM] |
| --- | --- | --- |
| Cc1cc(-n2c(C(C)C)c([C@H]3C[C@@H](C(=O)O)C3)c3cc(O)ccc32)ccc1F [Compound 98] | > 2 | > 30 |
| CC(=O)NS(=O)(=O)N1CC(c2c(C(C)C)n(-c3ccc(F)c(C)c3)c3ccc(O)cc23)C1 [Compound 214, N-((3-(1-(4-fluoro-3-methylphenyl)-5-hydroxy-2-isopropyl-1H-indol-3-yl)azetidin-1-yl)sulfonyl)acetamide] | > 2 | > 30 |
| Cc1cc(-n2c(C(C)C)c(-c3cc(C(=O)O)[nH]n3)c3cc(O)ccc32)ccc1F [Compound 179, 3-[1-(4-fluoro-3-methyl-phenyl)-5-hydroxy-2-isopropyl-indol-3-yl]-1H-pyrazole-5-carboxylic acid] | > 2 | > 30 |
| Cc1cc(-n2c([C@@H]3CCOC3)c([C@H]3C[C@@H](C(=O)O)C3)c3cc(O)ccc32)ccc1F [Compound 85] | > 2 | > 30 |
| Cc1cc(-n2c(C3CCOCC3)c([C@H]3C[C@@](C)(C(=O)O)C3)c3cc(O)ccc32)ccc1F [Compound 100] | > 2 | > 30 |
| O=C(O)[C@H]1CC[C@@H](c2c(C3CCOCC3)n(-c3ccc(F)c(F)c3)c3ccc(O)cc32)CC1 [Compound 138] | > 2 | > 30 |
| Cc1cc(-n2c([C@H]3CCCO3)c([C@H]3C[C@@H]3C(=O)O)c3cc(O)ccc32)ccc1F [Compound 126] | > 2 | > 30 |
| C[C@]1(C(=O)O)C[C@H](c2c(C3CCOCC3)n(-c3ccc(F)c(F)c3)c3ccc(O)cc32)C1 [Compound 39] | > 2 | > 30 |
| O=C(O)[C@H]1C[C@@H](c2c(C3CCOCC3)n(-c3ccc(F)c(F)c3)c3ccc(O)cc32)C1 [Compound 117] | > 2 | > 30 |
| CO[C@]1(C(=O)O)C[C@@H](c2c(C3CCOCC3)n(-c3ccc(F)c(C)c3)c3ccc(O)cc32)C1 [Compound 16] | > 2 | > 30 |
| O=C(O)[C@H]1C[C@@H](c2c(C3CCOCC3)n(-c3ccc(F)c(Cl)c3)c3ccc(O)cc32)C1 [Compound 115] | > 2 | > 30 |
| Cc1cc(-n2c(C(C)C)c([C@H]3C[C@@H](C#N)C3)c3cc(O)ccc32)ccc1F [Compound 215, 3-[1-(4-fluoro-3-methyl-phenyl)-5-hydroxy-2-isopropyl-indol-3-yl]cyclobutanecarbonitrile] | > 2 | > 5 |
| N#Cc1c(C2=S(N)(=O)CCC2)n(-c2ccc(F)cc2)c2ccc(O)cc12 (centres unmarked) [Compound 207] | > 2 | > 30 |
| Cc1cc(-n2c(C3CC3)c(C(Cc3ccccc3)C(=O)O)c3cc(O)ccc32)ccc1F (centres unmarked) [Compound 156, 2-(2-cyclopropyl-1-(4-fluoro-3-methylphenyl)-5-hydroxy-1H-indol-3-yl)-3-phenylpropanoic acid] | > 2 | > 30 |
| CCC(O)c1c(C#N)c2cc(O)ccc2n1-c1ccnc(C)c1 (centres unmarked) [Compound 192, 5-hydroxy-2-(I-hydroxypropyl)-1-(2-methylpyridin-4-yl)-1H-indole-3-carbonitrile] | > 2 | > 30 |
| Cc1cc(-n2c(C3CCOCC3)c([C@H]3C[C@H](c4nn[nH]n4)C3)c3cc(O)ccc32)ccc1F [Compound 218, 1-(4-fluoro-3-methyl-phenyl)-2-tetrahydropyran-4-yl-3-[3-(2H-tetrazol-5-yl)cyclobutyl]indol-5-ol] | > 2 | > 30 |
| Cc1cc(-n2c(C3CCOCC3)c([C@H]3C[C@@H](C(=O)O)C3)c3cc(O)ccc32)ccn1 [Compound 143] | > 2 | > 30 |
| Cc1cc(-n2c(C)c(C(C)C(=O)O)c3cc(O)ccc32)ccc1F (centres unmarked) [Compound 159] | > 2 | > 30 |
| Cc1cc2c(cc1O)c(C#N)c(C)n2-c1ccc(F)c(C)c1 [Compound 210] | > 2 | > 30 |
| O=C(O)[C@H]1CC[C@H](c2c(C3CCOCC3)n(-c3ccc(F)c(F)c3)c3ccc(O)cc32)CC1 [Compound 137] | > 2 | > 30 |

Now from value to compound:

| EC50 [1] [µM] | IC50 [2] [µM] | Structure (SMILES) |
| --- | --- | --- |
| > 2 | > 30 | Cc1cc(-n2c(C3CCOCC3)c([C@H]3C[C@@H](c4noc(=O)[nH]4)C3)c3cc(O)ccc32)ccc1F [Compound 224, cis-3-[3-[1-(4-fluoro-3-methyl-phenyl)-5-hydroxy-2-tetrahydropyran-4-yl-indol-3-yl]cyclobutyl]-4H-1,2,4-oxadiazol-5-one] |
| > 2 | > 30 | Cc1cc(-n2c(C)c(CC(=O)O)c3cc(O)ccc32)ccc1F [Compound 162] |
| > 2 | > 30 | Cc1cc(-n2c(C3CCOCC3)c([C@H]3C[C@@H]3C(=O)O)c3cc(O)ccc32)ccc1F (relative stereo) [Compound 124, trans-2-[1-(4-fluoro-3-methyl-phenyl)-5-hydroxy-2-tetrahydropyran-4-yl-indol-3-yl]cyclopropanecarboxylic acid] |
| > 2 | > 30 | Cc1cc(-n2c(C3CCS(=O)(=O)CC3)c(C3CC4(CC(C(=O)O)C4)C3)c3cc(O)ccc32)ccc1F (centres unmarked) [Compound 47] |
| > 2 | > 30 | Cc1cc(-n2c(C(C)C)c([C@H]3C[C@@H](CO)C3)c3cc(O)ccc32)ccc1F [Compound 226, cis-1-(4-fluoro-3-methyl-phenyl)-3-[3-(hydroxymethyl)cyclobutyl]-2-isopropyl-indol-5-ol] |
| > 2 | > 30 | Cc1cc(-n2c(C3COC3)c([C@H]3C[C@@H]3C(=O)O)c3cc(O)ccc32)ccc1F [Compound 131] |
| > 2 | > 30 | Cc1cc(-n2c(C3CCOCC3)c(CC34CC(C(=O)O)(C3)C4)c3cc(O)ccc32)ccc1F [Compound 4] |
| < 0.5 | > 5 | O=C(O)C1CC2(C1)CC(c1c(C3CCOCC3)n(-c3ccc(F)c(Cl)c3)c3ccc(O)cc13)C2 (centres unmarked) [Compound 31] |
| < 0.5 | < 2 | COCC(C)(C)c1c(-c2ccc(C(=O)O)cc2)c2cc(O)c(Cl)cc2n1-c1ccc(F)cc1 [Compound 177, 4-(6-chloro-1-(4-fluorophenyl)-5-hydroxy-2-(1-methoxy-2-methylpropan-2-yl)-1H-indol-3-yl)benzoic acid] |
| 0.5 to 2 | > 5 | Cc1cc(-n2c(C(F)(F)F)c([C@H]3C[C@](C)(C(=O)O)C3)c3cc(O)ccc32)ccc1F [Compound 139, trans-3-(1-(4-fluoro-3-methylphenyl)-5-hydroxy-2-(trifluoromethyl)-1H-indol-3-yl)-1-methylcyclobutane-1-carboxylic acid] |
| 0.5 to 2 | > 30 | O=C(O)[C@H]1CC2(C1)C[C@H](c1c(C3CCOCC3)n(-c3ccc(F)c(F)c3)c3ccc(O)cc31)C2 (some centres unmarked) [Compound 41] |
| < 0.5 | < 2 | CC(C)c1c([C@H]2CC3(C[C@H](C(=O)O)C3)C2)c2cc(O)ccc2n1-c1ccc(F)c(F)c1 (some centres unmarked) [Compound 57] |
| 0.5 to 2 | > 5 | Cc1cc(-n2c(C(C)C)c([C@H]3CC[C@H](C(=O)O)C3)c3cc(O)ccc32)ccc1F (racemic) [Compound 79] |
| 0.5 to 2 | < 2 | CC(C)c1c(C2CC3(CC(C(=O)O)C3)C2)c2cc(O)ccc2n1-c1ccc(F)cc1 (centres unmarked) [Compound 80] |
| < 0.5 | < 2 | COCC(C)(C)c1c(-c2ccc(C(=O)O)cc2)c2c(Cl)c(O)ccc2n1-c1ccc(F)cc1 [Compound 178, 4-[4-chloro-1-(4-fluorophenyl)-5-hydroxy-2-(2-methoxy-1,1-dimethyl-ethyl)indol-3-yl]benzoic acid] |
| < 0.5 | > 5 | CC(C)(C)c1c(C#N)c2cc(O)ccc2n1-c1ccc(F)cc1 [Compound 186] |
| 0.5 to 2 | > 5 | Cc1cc(-n2c(C(C)C)c([C@H]3C[C@@H](CC(=O)O)C3)c3cc(O)ccc32)ccc1F [Compound 63] |
| < 0.5 | 2 to 5 | Cc1cc(-n2c(C(C)C)c(-c3cccc(C(=O)O)c3)c3cc(O)ccc32)ccc1F [Compound 168] |
| 0.5 to 2 | > 5 | Cc1cc(-n2c(C(C)C)c(C3CC(F)(C(=O)O)C3)c3cc(O)ccc32)ccc1F (single isomer, unassigned) [Compound 150] |
| 0.5 to 2 | > 5 | Cc1cc(-n2c(C3CCOCC3)c([C@H]3C[C@@](C(=O)O)(C(F)(F)F)C3)c3cc(O)ccc32)ccc1F [Compound 9] |
| 0.5 to 2 | > 30 | Cc1cc(-n2c(C3CCOCC3)c([C@H]3C[C@H](c4noc(=O)[nH]4)C3)c3cc(O)ccc32)ccc1F [Compound 223, Trans-3-[3-[1-(4-fluoro-3-methyl-phenyl)-5-hydroxy-2-tetrahydropyran-4-yl-indol-3-yl]cyclobutyl]-4H-1,2,4-oxadiazol-5-one] |
| 0.5 to 2 | > 30 | N#Cc1c(C2CCC2)n(-c2ccccc2)c2ccc(O)cc12 [Compound 197] |
| 0.5 to 2 | > 5 | Cc1cc(-n2c(C(C)C)c([C@H]3C[C@H](C(=O)O)C3)c3cc(O)c(F)cc32)ccc1F [Compound 68] |
| < 0.5 | > 5 | O=C(O)[C@H]1CC2(C1)C[C@H](c1c(C3CCOCC3)n(-c3ccc(F)c(Cl)c3)c3ccc(O)cc31)C2 (some centres unmarked) [Compound 33] |
| 0.5 to 2 | > 30 | Cc1cc(-n2c(C(C)C)c(CCCC(=O)O)c3cc(O)ccc32)ccc1F [Compound 96] |
| 0.5 to 2 | 2 to 5 | Cc1cc(-n2c(C(C)C)c([C@H]3C[C@](C)(C(=O)O)C3)c3c(F)c(O)c(F)cc32)ccc1F [Compound 22] |
